Consider 24 compounds from US8614201B2 (Janssen Pharmaceutica NV, priority 2009, dated 2013).

Molecules are shown by their SMILES. pIC50: −log10 of the molar value. Bounds are passed on as bounds.

Chain of Human TRPA1 (O75762 whole entry): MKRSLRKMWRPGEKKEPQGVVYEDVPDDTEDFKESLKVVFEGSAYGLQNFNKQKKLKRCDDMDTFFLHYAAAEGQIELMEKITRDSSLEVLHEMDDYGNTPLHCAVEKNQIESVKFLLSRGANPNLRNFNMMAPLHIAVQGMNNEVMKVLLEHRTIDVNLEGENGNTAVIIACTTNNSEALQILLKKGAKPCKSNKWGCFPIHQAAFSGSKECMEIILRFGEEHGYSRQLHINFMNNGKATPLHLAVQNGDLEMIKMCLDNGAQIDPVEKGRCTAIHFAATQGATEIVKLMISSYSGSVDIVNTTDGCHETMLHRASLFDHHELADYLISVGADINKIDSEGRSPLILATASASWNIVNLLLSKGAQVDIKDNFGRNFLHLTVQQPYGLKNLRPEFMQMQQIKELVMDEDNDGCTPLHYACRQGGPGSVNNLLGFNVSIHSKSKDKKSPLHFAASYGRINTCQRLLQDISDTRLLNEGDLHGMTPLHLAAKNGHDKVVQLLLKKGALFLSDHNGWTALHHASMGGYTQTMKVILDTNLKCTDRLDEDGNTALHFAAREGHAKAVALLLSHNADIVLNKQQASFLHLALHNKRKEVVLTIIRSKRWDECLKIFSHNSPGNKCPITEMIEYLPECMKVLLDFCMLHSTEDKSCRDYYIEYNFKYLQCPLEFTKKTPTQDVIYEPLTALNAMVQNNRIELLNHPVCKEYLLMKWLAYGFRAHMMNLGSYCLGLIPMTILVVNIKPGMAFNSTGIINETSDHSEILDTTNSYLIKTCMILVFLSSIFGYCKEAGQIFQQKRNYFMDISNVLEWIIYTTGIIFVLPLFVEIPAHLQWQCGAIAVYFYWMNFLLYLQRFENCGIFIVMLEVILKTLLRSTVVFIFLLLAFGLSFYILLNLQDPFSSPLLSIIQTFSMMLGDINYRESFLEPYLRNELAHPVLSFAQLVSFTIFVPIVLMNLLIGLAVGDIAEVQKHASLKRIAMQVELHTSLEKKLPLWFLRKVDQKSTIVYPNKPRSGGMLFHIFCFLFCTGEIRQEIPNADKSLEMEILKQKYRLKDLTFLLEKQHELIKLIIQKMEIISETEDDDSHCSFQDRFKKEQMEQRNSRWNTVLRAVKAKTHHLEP

The assay addresses Human TRPA1 (Homo sapiens, UniProt O75762). Description: Alternative TRPA1 Ca2+ fluorometry assay (hTRPA1/TREx-HEK293 cells, Fluo-4, FDSS 6000). Type of assay: cell-based. Also on record: expressed in transfected cells. The following applies: Fluo-4-AM, agonist 6,11-dihydro-5H-dibenzo[b,e]azepine-10-carboxylic acid methyl ester 25 nM, procedure used for Examples 184, 190 to 192, 194 to 316. The method in brief: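 Tetracycline-induced (50 ng/ml, 24 h) hTRPA1/TREx-HEK293 cells were loaded with Fluo-4-AM and probenecid. Compound (1% DMSO final) was added after a 12 s baseline and the Ca2+ signal followed for 14 min, then 25 nM TRPA1 agonist dibenzazepine carboxylic acid methyl ester was applied. Signal is Em540 (ex 488 nm) relative to the first baseline reading.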
The pIC50 is the IC50 on a negative log10 scale, so that one unit is a factor of ten. Read a high pIC50 as a low IC50. Compound `Cc1c(Cl)cccc1S(=O)(=O)N1CCC[C@H]1C(=O)NCc1cc(-c2ccc(C(F)(F)F)cc2)nc(N2CCN(c3ccccc3F)CC2)n1` [Example 262, 1-(3-Chloro-2-methyl-benzenesulfonyl)-pyrrolidine-2S-carboxylic acid [2-[4-(2-fluoro-phenyl)-piperazin-1-yl]-6-(4-trifluoromethyl-phenyl)-pyrimidin-4-ylmethyl]-amide] had a pIC50 below 5.00.

On to `O=C(NCc1cc(-c2ccc3c(c2)OCO3)nc(N2CCOCC2)n1)[C@@H]1CCCN1S(=O)(=O)c1ccc(F)cc1` [Example 207, 1-(4-Fluoro-benzenesulfonyl)-pyrrolidine-2S-carboxylic acid (6-benzo[1,3]dioxol-5-yl-2-morpholin-4-yl-pyrimidin-4-ylmethyl)-amide], for which the pIC50 was 5.04.

With `O=C(NCc1cc(-c2ccc(C(F)(F)F)cc2)nc(N2CCN(c3ccccc3F)CC2)n1)[C@@H]1CCCN1S(=O)(=O)c1ccc(Cl)cc1F` [Example 278, 1-(4-Chloro-2-fluoro-benzenesulfonyl)-pyrrolidine-2S-carboxylic acid [2-[4-(2-fluoro-phenyl)-piperazin-1-yl]-6-(4-trifluoromethyl-phenyl)-pyrimidin-4-ylmethyl]-amide], the pIC50 was below 5.00.

As to `O=C(NCc1cc(-c2cccc(C(F)(F)F)c2)nc(N2CCN(c3ccccc3F)CC2)n1)[C@@H]1CCCN1S(=O)(=O)c1ccc(F)cc1` [Example 243, 1-(4-Fluoro-benzenesulfonyl)-pyrrolidine-2S-carboxylic acid [2-[4-(2-fluoro-phenyl)-piperazin-1-yl]-6-(3-trifluoromethyl-phenyl)-pyrimidin-4-ylmethyl]-amide], the negative-log IC50 (pIC50) was 5.42.

In turn, `O=C(NCc1cc(-c2ccc3c(c2)OCO3)nc(Nc2ccc(F)cc2)n1)[C@@H]1CCCN1S(=O)(=O)c1ccc(F)cc1` [Example 225, 1-(4-Fluoro-benzenesulfonyl)-pyrrolidine-2S-carboxylic acid [6-benzo[1,3]dioxol-5-yl-2-(4-fluoro-phenylamino)-pyrimidin-4-ylmethyl]-amide] had a pIC50 of 5.60.

Compound `O=C(NCc1cccc(-c2ccc(C(F)(F)F)cc2)n1)[C@@H]1CCCN1S(=O)(=O)c1ccc(F)cc1` [Example 283, 1-(4-Fluoro-benzenesulfonyl)-pyrrolidine-2S-carboxylic acid [6-(4-trifluoromethyl-phenyl)-pyridin-2-ylmethyl]-amide] gave a pIC50 of around 6.14.

Regarding `C#CCNc1nc(CNC(=O)[C@@H]2CCCN2S(=O)(=O)c2ccc(F)cc2)cc(-c2ccc3c(c2)OCO3)n1` [Example 200, 1-(4-Fluoro-benzenesulfonyl)-pyrrolidine-2S-carboxylic acid (6-benzo[1,3]dioxol-5-yl-2-prop-2-ynylamino-pyrimidin-4-ylmethyl)-amide], the pIC50 was 5.48.

Regarding `COc1ccc(F)cc1-c1cc(CNC(=O)[C@@H]2CCCN2S(=O)(=O)c2ccc(F)cc2)nc(N2CCN(c3ccccc3F)CC2)n1` [Example 230, 1-(4-Fluoro-benzenesulfonyl)-pyrrolidine-2S-carboxylic acid {6-(5-fluoro-2-methoxy-phenyl)-2-[4-(2-fluoro-phenyl)-piperazin-1-yl]-pyrimidin-4-ylmethyl}-amide], the negative logarithm of the IC50 (pIC50) was 5.89.

In turn, `CN1CCCC1CCNc1nc(CNC(=O)[C@@H]2CCCN2S(=O)(=O)c2ccc(F)cc2)cc(-c2ccc(C(F)(F)F)cc2)n1` (stereo partly drawn) [Example 196, 1-(4-Fluoro-benzenesulfonyl)-pyrrolidine-2S-carboxylic acid [2-[2-(1-methyl-pyrrolidin-2(R,S)-yl)-ethylamino]-6-(4-trifluoromethyl-phenyl)-pyrimidin-4-ylmethyl]-amide] gave a negative logarithm of the IC50 (pIC50) of around 5.32.

Compound `O=C(NCc1cc(-c2ccc(C(F)(F)F)cc2)nc(N2CCC[C@H]2CO)n1)[C@@H]1CCCN1S(=O)(=O)c1ccc(F)cc1` [Example 190, 1-(4-Fluoro-benzenesulfonyl)-pyrrolidine-2S-carboxylic acid [2-(2S-hydroxymethyl-pyrrolidin-1-yl)-6-(4-trifluoromethyl-phenyl)-pyrimidin-4-ylmethyl]-amide] gave a negative-log IC50 (pIC50) of around 5.71.

Turning to `CC(C)CN(CCO)c1nc(CNC(=O)[C@@H]2CCCN2S(=O)(=O)c2ccc(F)cc2)cc(-c2ccc(Br)cc2)n1` [Example 289, 1-(4-Fluoro-benzenesulfonyl)-pyrrolidine-2S-carboxylic acid {6-(4-bromo-phenyl)-2-[(2-hydroxy-ethyl)-isobutyl-amino]-pyrimidin-4-ylmethyl}-amide], the pIC50 is around 5.46.

As to `Cc1cccc(S(=O)(=O)N2CCC[C@H]2C(=O)NCc2cc(-c3ccc(C(F)(F)F)cc3)nc(N3CCN(c4ccccc4F)CC3)n2)c1` [Example 271, 1-(Toluene-3-sulfonyl)-pyrrolidine-2S-carboxylic acid [2-[4-(2-fluoro-phenyl)-piperazin-1-yl]-6-(4-trifluoromethyl-phenyl)-pyrimidin-4-ylmethyl]-amide], the pIC50 is below 5.00.

In the case of `O=C(NCc1cc(-c2ccc(C(F)(F)F)cc2)nc(NCc2cccnc2)n1)[C@@H]1CCCN1S(=O)(=O)c1ccc(F)cc1` [Example 294, 1-(4-Fluoro-benzenesulfonyl)-pyrrolidine-2S-carboxylic acid [2-[(pyridin-3-ylmethyl)-amino]-6-(4-trifluoromethyl-phenyl)-pyrimidin-4-ylmethyl]-amide], the negative-log IC50 (pIC50) was around 6.00.

`O=C(NCc1cc(-c2ccc(Br)cc2)nc(NC2CC2)n1)[C@@H]1CCCN1S(=O)(=O)c1ccc(F)cc1` [Example 290, 1-(4-Fluoro-benzenesulfonyl)-pyrrolidine-2S-carboxylic acid [6-(4-bromo-phenyl)-2-cyclopropylamino-pyrimidin-4-ylmethyl]-amide]: the pIC50 is around 6.15.

Regarding `O=C(NCc1cc(-c2ccc(C(F)(F)F)cc2)nc(N2CCN(c3ccccc3F)CC2)n1)[C@@H]1CCCN1S(=O)(=O)c1cc(Cl)ccc1F` [Example 257, 1-(5-Chloro-2-fluoro-benzenesulfonyl)-pyrrolidine-2S-carboxylic acid [2-[4-(2-fluoro-phenyl)-piperazin-1-yl]-6-(4-trifluoromethyl-phenyl)-pyrimidin-4-ylmethyl]-amide], the pIC50 is below 5.00.

The compound `CCOC(=O)C1CCN(c2nc(CNC(=O)[C@@H]3CCCN3S(=O)(=O)c3ccc(F)cc3)cc(-c3ccc(Br)cc3)n2)CC1` [Example 214, 1-[4-(4-Bromo-phenyl)-6-({[1-(4-fluoro-benzenesulfonyl)-pyrrolidine-2S-carbonyl]-amino}-methyl)-pyrimidin-2-yl]-piperidine-4-carboxylic acid ethyl ester] showed a pIC50 of around 6.01.

On to `CC(C)c1ccc(S(=O)(=O)N2CCC[C@H]2C(=O)NCc2cc(-c3ccc(C(F)(F)F)cc3)nc(N3CCN(c4ccccc4F)CC3)n2)cc1` [Example 260, 1-(4-Isopropyl-benzenesulfonyl)-pyrrolidine-2S-carboxylic acid [2-[4-(2-fluoro-phenyl)-piperazin-1-yl]-6-(4-trifluoromethyl-phenyl)-pyrimidin-4-ylmethyl]-amide], for which the pIC50 is below 5.00.

`O=C(NCc1cc(-c2ccccc2Cl)nc(N2CCN(c3ccccc3F)CC2)n1)[C@@H]1CCCN1S(=O)(=O)c1ccc(F)cc1` [Example 242, 1-(4-Fluoro-benzenesulfonyl)-pyrrolidine-2-carboxylic acid {6-(2-chloro-phenyl)-2-[4-(2-fluoro-phenyl)-piperazin-1-yl]-pyrimidin-4-ylmethyl}-amide] had a negative logarithm of the IC50 (pIC50) of around 5.96.

Turning to `O=C(NCc1cc(-c2ccc3c(c2)OCO3)nc(NCCc2ccc(Cl)cc2Cl)n1)[C@@H]1CCCN1S(=O)(=O)c1ccc(F)cc1` [Example 292, 1-(4-Fluoro-benzenesulfonyl)-pyrrolidine-2S-carboxylic acid {6-benzo[1,3]dioxol-5-yl-2-[2-(2,4-dichloro-phenyl)-ethylamino]-pyrimidin-4-ylmethyl}-amide], the pIC50 was below 5.00.

`Cc1cccc(Cl)c1S(=O)(=O)N1CCC[C@H]1C(=O)NCc1cc(-c2ccc(C(F)(F)F)cc2)nc(N2CCN(c3ccccc3F)CC2)n1` [Example 277, 1-(2-Chloro-6-methyl-benzenesulfonyl)-pyrrolidine-2S-carboxylic acid [2-[4-(2-fluoro-phenyl)-piperazin-1-yl]-6-(4-trifluoromethyl-phenyl)-pyrimidin-4-ylmethyl]-amide]: the pIC50 was below 5.00.

Turning to `O=C(NCc1cc(-c2ccc(OC(F)(F)F)cc2)nc(N2CCN(c3ccccc3F)CC2)n1)[C@@H]1CCCN1S(=O)(=O)c1ccc(F)cc1` [Example 226, 1-(4-Fluoro-benzenesulfonyl)-pyrrolidine-2S-carboxylic acid [2-[4-(2-fluoro-phenyl)-piperazin-1-yl]-6-(4-trifluoromethoxy-phenyl)-pyrimidin-4-ylmethyl]-amide], the pIC50 is 6.94.

`O=C(NCc1cc(-c2ccc(C(F)(F)F)cc2)nc(NCCc2cccnc2)n1)[C@@H]1CCCN1S(=O)(=O)c1ccc(F)cc1` [Example 312, 1-(4-Fluoro-benzenesulfonyl)-pyrrolidine-2S-carboxylic acid [2-(2-pyridin-3-yl-ethylamino)-6-(4-trifluoromethyl-phenyl)-pyrimidin-4-ylmethyl]-amide] had a negative-log IC50 (pIC50) of 6.53.

On to `CC(=O)c1ccc(N2CCN(c3nc(CNC(=O)[C@@H]4CCCN4S(=O)(=O)c4ccc(F)cc4)cc(-c4ccc(C(F)(F)F)cc4)n3)CC2)cc1` [Example 309, 1-(4-Fluoro-benzenesulfonyl)-pyrrolidine-2S-carboxylic acid [2-[4-(4-acetyl-phenyl)-piperazin-1-yl]-6-(4-trifluoromethyl-phenyl)-pyrimidin-4-ylmethyl]-amide], for which the pIC50 was 5.93.

`Cc1ccccc1S(=O)(=O)N1CCC[C@H]1C(=O)NCc1cc(-c2ccc(C(F)(F)F)cc2)nc(N2CCN(c3ccccc3F)CC2)n1` [Example 279, 1-(Toluene-2-sulfonyl)-pyrrolidine-2S-carboxylic acid [2-[4-(2-fluoro-phenyl)-piperazin-1-yl]-6-(4-trifluoromethyl-phenyl)-pyrimidin-4-ylmethyl]-amide]: the pIC50 is below 5.00.
